In the supplement of paper PMC10307832:

Tests used:
Test in all cases: relative viability (nuclei count vs DMSO), 5 days (fraction); higher = more cells survive
HCC-78 = test system: HCC-78
Procedure, shortened: (§1)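 Lung cancer cell lines were pin-tool dosed in 1536-well plates on the day after seeding, with either a lone drug or a fixed anchor-drug dose plus five library-drug doses (not always all listed) in √10 steps. Nuclei were counted on 4× images after 5 days. Relative viability is the ratio of treated-well to vehicle-well nuclei counts, with each value a median of duplicate plates.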

NCI-H1993 = test system: NCI-H1993
Procedure, shortened: as §1

UMC-11 = test system: UMC-11
Procedure, shortened: as §1

BEN = test system: BEN
Procedure, shortened: as §1

NCI-H1395 = test system: NCI-H1395
Procedure, shortened: as §1

LXF-289 = test system: LXF-289
Procedure, shortened: as §1

LC-2-ad = test system: LC-2-ad
Procedure, shortened: as §1

RERF-LC-KJ = test system: RERF-LC-KJ
Procedure, shortened: as §1

HARA = test system: HARA
Procedure, shortened: as §1

LOU-NH91 = test system: LOU-NH91
Procedure, shortened: as §1

LU99A = test system: LU99A
Procedure, shortened: as §1

H3255 = test system: H3255
Procedure, shortened: as §1

EMC-BAC-2 = test system: EMC-BAC-2
Procedure, shortened: as §1

NCI-H2126 = test system: NCI-H2126
Procedure, shortened: as §1

201T = test system: 201T
Procedure, shortened: as §1

HOP-62 = test system: HOP-62
Procedure, shortened: as §1

NCI-H2087 = test system: NCI-H2087
Procedure, shortened: as §1

COR-L 105 = test system: COR-L 105
Procedure, shortened: as §1

SK-MES-1 = test system: SK-MES-1
Procedure, shortened: as §1

NCI-H2170 = test system: NCI-H2170
Procedure, shortened: as §1

`CN1CCN(CCOc2cc(OC3CCOCC3)c3c(Nc4c(Cl)ccc5c4OCO5)ncnc3c2)CC1` [Saracatinib] + CC1(C)CCC(c2ccc(Cl)cc2)=C(CN2CCN(c3ccc(C(=O)NS(=O)(=O)c4ccc(N[C@H](CCN5CCOCC5)CSc5ccccc5)c(S(=O)(=O)C(F)(F)F)c4)cc3)CC2)C1 [Navitoclax] (partner 0.5 µM) was tested, and the relative viability (HCC-78; first compound 0.02 µM) was 0.733, the relative viability (HCC-78; first compound 0.2 µM) was 0.779 and the relative viability (HCC-78; first compound 0.6325 µM) was 1.08. The relative viability (HCC-78; first compound 2 µM) was 0.875, the relative viability (NCI-H1993; first compound 0.02 µM) was 0.848 and the relative viability (NCI-H1993; first compound 0.2 µM) was 0.78. The relative viability (NCI-H1993; first compound 2 µM) was 0.769, the relative viability (UMC-11; first compound 0.02 µM) was 0.318 and the relative viability (UMC-11; first compound 0.6325 µM) was 0.295. The relative viability (UMC-11; first compound 2 µM) was 0.267, the relative viability (BEN; first compound 0.02 µM) was 0.0867 and the relative viability (BEN; first compound 0.2 µM) was 0.0774. The relative viability (BEN; first compound 0.6325 µM) was 0.0714, the relative viability (BEN; first compound 2 µM) was 0.0584 and the relative viability (NCI-H1395; first compound 0.02 µM) was 1.37. For the same compound, the relative viability (NCI-H1395; first compound 0.2 µM) was 0.902, the relative viability (NCI-H1395; first compound 0.6325 µM) was 1.09 and the relative viability (NCI-H1395; first compound 2 µM) was 1.08. The relative viability (LXF-289; first compound 0.02 µM) was 0.979, the relative viability (LXF-289; first compound 0.2 µM) was 0.846 and the relative viability (LXF-289; first compound 0.6325 µM) was 0.993. The relative viability (LXF-289; first compound 2 µM) was 0.964, the relative viability (LC-2-ad; first compound 0.02 µM) was 0.453 and the relative viability (LC-2-ad; first compound 0.6325 µM) was 0.448. For the same compound, the relative viability (LC-2-ad; first compound 2 µM) was 0.348, the relative viability (RERF-LC-KJ; first compound 0.02 µM) was 0.817 and the relative viability (RERF-LC-KJ; first compound 0.2 µM) was 1.17. It also gave a relative viability (RERF-LC-KJ; first compound 0.6325 µM) of 0.959, a relative viability (RERF-LC-KJ; first compound 2 µM) of 0.934 and a relative viability (HARA; first compound 0.02 µM) of 1.2. It also gave a relative viability (HARA; first compound 0.6325 µM) of 1.1, a relative viability (HARA; first compound 2 µM) of 0.984 and a relative viability (LOU-NH91; first compound 0.02 µM) of 0.678. It also gave a relative viability (LOU-NH91; first compound 0.2 µM) of 0.418, a relative viability (LOU-NH91; first compound 0.6325 µM) of 0.405 and a relative viability (LOU-NH91; first compound 2 µM) of 0.361. For the same compound, the relative viability (LU99A; first compound 0.02 µM) was 0.818, the relative viability (LU99A; first compound 0.2 µM) was 0.629 and the relative viability (LU99A; first compound 0.6325 µM) was 0.847. For the same compound, the relative viability (LU99A; first compound 2 µM) was 0.865, the relative viability (H3255; first compound 0.02 µM) was 0.515 and the relative viability (H3255; first compound 0.2 µM) was 0.393. For the same compound, the relative viability (H3255; first compound 0.6325 µM) was 0.302, the relative viability (H3255; first compound 2 µM) was 0.0997 and the relative viability (EMC-BAC-2; first compound 0.02 µM) was 1.15. The relative viability (EMC-BAC-2; first compound 0.2 µM) was 1.16, the relative viability (EMC-BAC-2; first compound 0.6325 µM) was 1.15 and the relative viability (EMC-BAC-2; first compound 2 µM) was 0.993. For the same compound, the relative viability (NCI-H2126; first compound 0.02 µM) was 0.876, the relative viability (NCI-H2126; first compound 0.2 µM) was 0.747 and the relative viability (NCI-H2126; first compound 0.6325 µM) was 0.887. It also gave a relative viability (NCI-H2126; first compound 2 µM) of 0.684, a relative viability (201T; first compound 0.02 µM) of 1.29 and a relative viability (201T; first compound 0.2 µM) of 1.16. For the same compound, the relative viability (201T; first compound 0.6325 µM) was 1.09, the relative viability (201T; first compound 2 µM) was 1.1 and the relative viability (HOP-62; first compound 0.02 µM) was 1.01. The relative viability (HOP-62; first compound 0.2 µM) was 0.804, the relative viability (HOP-62; first compound 0.6325 µM) was 1.25 and the relative viability (HOP-62; first compound 2 µM) was 1.1. For the same compound, the relative viability (NCI-H2087; first compound 0.02 µM) was 1.03, the relative viability (NCI-H2087; first compound 0.2 µM) was 1.04 and the relative viability (NCI-H2087; first compound 0.6325 µM) was 1.14. It also gave a relative viability (NCI-H2087; first compound 2 µM) of 1.05, a relative viability (COR-L 105; first compound 0.02 µM) of 0.795 and a relative viability (COR-L 105; first compound 0.2 µM) of 0.764. It also gave a relative viability (COR-L 105; first compound 0.6325 µM) of 0.578, a relative viability (COR-L 105; first compound 2 µM) of 0.474 and a relative viability (SK-MES-1; first compound 0.02 µM) of 1.24. The relative viability (SK-MES-1; first compound 0.2 µM) was 1.16, the relative viability (SK-MES-1; first compound 0.6325 µM) was 1.21 and the relative viability (SK-MES-1; first compound 2 µM) was 0.727. It also gave a relative viability (NCI-H2170; first compound 0.02 µM) of 0.57, a relative viability (NCI-H2170; first compound 0.2 µM) of 0.564 and a relative viability (NCI-H2170; first compound 0.6325 µM) of 0.609. For the same compound, the relative viability (NCI-H2170; first compound 2 µM) was 0.39.
